Like-named read-outs stand apart in the source and are kept apart here.
Key:
[1] = solubility at room temperature; format: physicochemical
Text: Compound A is an orange amorphous solid, soluble in base and neutral phosphate buffer at room temperature. Compound A has the following beneficial electrochemical characteristics: • E0=0.086V vs Ag/AgCl (0.1M KCl) • kcat=900 s^−1 where E0 is the formal redox potential vs Ag/AgCl (compare to 0.25V for ferricyanide) and kcat is the rate constant for homogeneous electron transfer between the mediator (i.e., Compound A) and enzyme cofactor FAD. It is noted that E0 for ferricyanide is 0.25V and kcat for ferricyanide is 230 s^−1. Compound A has both an E0 that is beneficially lower than that of ferricyanide (and thus less is less susceptible to interferents) and a kcat that is beneficially higher than that of ferricyanide.
Compound B is an orange amorphous solid, soluble in base and neutral phosphate buffer at room temperature. […] has the following beneficial electrochemical characteristics: • E0=0.016V vs Ag/AgCl (0.1M KCl) • kcat=100 s^−1 where E0 is the formal redox potential vs Ag/AgCl (compare to 0.25V for ferricyanide) and kcat is the rate constant for homogeneous electron transfer between the mediator (i.e., Compound A) and enzyme cofactor FAD. It is noted that E0 for ferricyanide is 0.25V and kcat for ferricyanide is 230 s^−1. […]

[2] = storage stability (glucose sensitivity after storage); format: physicochemical; details: storage for 26 days at 40 degrees Celsius

Row | solubility [1] | reduction in glucose sensitivity after storage [2] | solubility ([1]; in base and neutral phosphate buffer at room temperature) | SMILES
1 | soluble | no reduction in glucose sensitivity | – | O=C1C=C(SCCCS(=O)(=O)O)c2ccccc2C1=O [Compound A, 1,2-naphthalenedione-4-(3-mercapto-1-propanesulfonic acid)]
2 | – | no reduction in glucose sensitivity | soluble | O=C(O)CCSC1=CC(=O)C(=O)c2ccccc21 [Compound B, 1,2-naphthalenedione-4-(3-mercaptopropionic acid)]
